In patent US20240116985A1, “STAPLED PEPTIDES AND METHODS THEREOF” (priority 2020, published 2024):

Key:
[1] = CHI Log D procedure; format: physicochemical; conditions: for CHI Log D: pH 7.4; for chromatographic logD: pH 7.4, CHI Log D
[2] = biological target: T1, full-length B-Catenin (Uniprot ID P35222) (Homo sapiens, UniProt P35222); test: Alphascreen binding assay (beta-catenin / biotin-TCF4 10-53)
T1 construct: 65 nM full-length B-Catenin (Uniprot ID P35222)
T1 sequence (P35222 1-781): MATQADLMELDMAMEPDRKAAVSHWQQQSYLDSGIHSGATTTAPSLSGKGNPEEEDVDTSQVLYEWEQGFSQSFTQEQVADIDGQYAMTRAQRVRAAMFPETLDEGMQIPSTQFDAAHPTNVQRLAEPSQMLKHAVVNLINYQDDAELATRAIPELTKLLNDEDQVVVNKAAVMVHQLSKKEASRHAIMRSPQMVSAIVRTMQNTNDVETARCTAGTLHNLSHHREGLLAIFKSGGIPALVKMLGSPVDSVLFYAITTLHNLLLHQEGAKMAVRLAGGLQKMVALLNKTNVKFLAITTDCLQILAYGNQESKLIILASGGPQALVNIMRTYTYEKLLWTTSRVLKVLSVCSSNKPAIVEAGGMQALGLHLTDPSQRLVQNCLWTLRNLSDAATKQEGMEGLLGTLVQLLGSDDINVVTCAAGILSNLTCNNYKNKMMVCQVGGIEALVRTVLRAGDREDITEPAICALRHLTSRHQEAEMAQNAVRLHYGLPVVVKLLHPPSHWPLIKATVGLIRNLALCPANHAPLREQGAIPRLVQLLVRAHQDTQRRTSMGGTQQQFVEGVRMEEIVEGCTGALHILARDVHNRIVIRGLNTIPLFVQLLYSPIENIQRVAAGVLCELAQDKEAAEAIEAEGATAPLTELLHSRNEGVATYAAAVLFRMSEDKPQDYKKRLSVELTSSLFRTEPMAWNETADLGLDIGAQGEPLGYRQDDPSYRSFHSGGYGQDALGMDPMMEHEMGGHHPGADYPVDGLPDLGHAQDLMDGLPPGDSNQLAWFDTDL
Procedure: In some embodiments, an assay is an Alphascreen binding assay. A useful protocol is described below as an example.
Alphascreen binding assay: Using the AlphaScreen Histidine (Nickel Chelate) Detection Kit (PerkinElmer), peptide solutions were prepared in buffer (50 mM Tris pH 8.0, 250 mM NaCl, 2% glycerol, 0.03% Tween-20, 0.01% TritonX-100, 0.1% BSA w/v) using a 3-fold serial dilution from 10 uM to 5 nM. Probe solution (65 nM full-length B-Catenin (Uniprot ID P35222), mixed with 10 nM biotin labeled TCF4 residues 10-53 (Uniprot ID Q9NQB0) peptide in buffer) was prepared and 4 uL per well was plated in a white polystyrene 384-well plate (Corning). Equal volume of the titrated peptide was added to the plate and incubated for 15 minutes at 20° C. Then 4 uL of donor and 4 uL acceptor beads at 10 ug/mL were added to the plate, for a 16 uL reaction pool and protected from light for 60 minutes at 20° C. prior to read. Reads were performed on a CLARIOstar plate reader (BMG Labtech) in duplicate, and data were fitted to a 1:1 binding model with hill slope using an in-house script. All provided concentrations are final concentrations.

| Compound | CHI Log D [1] | EC50 [2] [µM] | chromatographic logD [1] |
| --- | --- | --- | --- |
| CC(=O)N[C@@H](Cc1ccccc1)C(=O)N[C@@H](CC(=O)O)C(=O)N[C@@H](C)C(=O)N[C@]1(C)CCCCCC=CCOC(=O)N2CC[C@@](C(=O)N[C@@H](Cc3ccccc3)C(=O)N[C@@H](Cc3c[nH]c4ccccc34)C(=O)N[C@@H](CCC(N)=O)C(N)=O)(C2)NC(=O)[C@H](C(C)C)NC(=O)[C@H](Cc2ccccc2)NC(=O)[C@H](C)NC(=O)[C@H](C)NC(=O)[C@H](CC(=O)O)NC(=O)[C@H](CC(=O)O)NC1=O [I-30, Ac-Phe-Asp-Ala-R7-Asp-Asp-Ala-Ala-Phe-Val-PyrS-Phe-Trp-Gln-NH2] | 1.228 | 8.82 |  |
| CC(=O)N[C@@H](Cc1ccccc1)C(=O)N[C@@H](CC(=O)O)C(=O)N[C@@H](C)C(=O)N[C@]1(C)CCCCCC=CCOC(=O)N2CC[C@@](C(=O)N[C@@H](Cc3ccccc3)C(=O)N[C@@H](Cc3c[nH]c4ccccc34)C(=O)N[C@@H](CCC(N)=O)C(N)=O)(C2)NC(=O)[C@H](C(C)C)NC(=O)[C@H](Cc2ccccc2)NC(=O)[C@H](C)NC(=O)[C@H](C)NC(=O)[C@H](CC(=O)O)NC(=O)[C@H](CC(=O)O)NC1=O [I-31, Ac-Phe-Asp-Ala-R7-Asp-Asp-Ala-Ala-Phe-Val-PyrS-Phe-Trp-Gln-NH2] | 1.245 | 7.22 |  |
| CC(=O)N[C@@H](Cc1ccccc1)C(=O)N[C@@H](CC(=O)O)C(=O)N[C@@H](C)C(=O)NC12CN(C1)C(=O)OCC=CCCCCCC[C@@](C)(C(=O)N[C@@H](Cc1ccccc1)C(=O)N[C@@H](Cc1c[nH]c3ccccc13)C(=O)N[C@@H](CCC(N)=O)C(N)=O)NC(=O)[C@H](C(C)C)NC(=O)[C@H](Cc1ccccc1)NC(=O)[C@H](C)NC(=O)[C@H](C)NC(=O)[C@H](CC(=O)O)NC(=O)[C@H](CC(=O)O)NC2=O [I-35, Ac-Phe-Asp-Ala-Az-Asp-Asp-Ala-Ala-Phe-Val-S8-Phe-Trp-Gln-NH2] |  | 9.54 | 1.33 |
| CC(=O)N[C@@H](Cc1ccccc1)C(=O)N[C@@H](CC(=O)O)C(=O)N[C@@H](C)C(=O)N[C@]1(C)CCCCCCC=CCOC(=O)N2CC[C@@](C(=O)N[C@@H](CC3CCCCC3)C(=O)N[C@@H](Cc3c[nH]c4ccccc34)C(=O)N[C@@H](CCC(N)=O)C(N)=O)(C2)NC(=O)[C@H](C(C)C)NC(=O)[C@H](Cc2ccccc2)NC(=O)[C@H](C)NC(=O)[C@H](C)NC(=O)[C@H](CC(=O)O)NC(=O)[C@H](CC(=O)O)NC1=O [I-61, Ac-Phe-Asp-Ala-R8-Asp-Asp-Ala-Ala-Phe-Val-PyrS-Cha-Trp-Gln-NH2] | 1.446 | 8.9 |  |
| CCCC[C@@H]1NC(=O)[C@H](CC(=O)O)NC(=O)[C@](C)(NC(=O)[C@@H](NC(=O)[C@H](CC(=O)O)NC(=O)[C@H](C)NC(C)=O)[C@@H](C)CC)CCN(C)C(=O)OCC=CCCCCC[C@@](C)(C(=O)N[C@@H](Cc2ccccc2)C(=O)N[C@@H](Cc2c[nH]c3ccccc23)C(=O)N[C@@H](Cc2c[nH]cn2)C(N)=O)NC(=O)[C@H](CCC(N)=O)NC(=O)[C@H](Cc2ccccc2)NC(=O)[C@H](C)NC(=O)[C@H](C)NC1=O [I-69, Ac-Ala-Asp-Ile-RdN-Asp-nLeu-Ala-Ala-Phe-Gln-S7-Phe-Trp-His-NH2] | 1.593 | 9.1 |  |
| CC(=O)N[C@@H](Cc1ccccc1)C(=O)N[C@@H](CC(=O)O)C(=O)N[C@@H](C)C(=O)N[C@]1(C)CCCCCCC=CCOC(=O)N2CC[C@@](C(=O)N[C@@H](Cc3ccccn3)C(=O)N[C@@H](Cc3c[nH]c4ccccc34)C(=O)N[C@@H](CCC(N)=O)C(N)=O)(C2)NC(=O)[C@H](C(C)C)NC(=O)[C@H](Cc2ccccc2)NC(=O)[C@H](C)NC(=O)[C@H](C)NC(=O)[C@H](CC(=O)O)NC(=O)[C@H](CC(=O)O)NC1=O [I-81, Ac-Phe-Asp-Ala-R8-Asp-Asp-Ala-Ala-Phe-Val-PyrS-2PyrA-Trp-Gln-NH2] | 1.063 | 9.77 |  |
| CC(=O)N[C@@H](Cc1ccccc1)C(=O)N[C@@H](CC(=O)O)C(=O)N[C@@H](C)C(=O)N[C@]1(C)CCCCCCC=CCOC(=O)N2CC[C@@](C(=O)N[C@@H](Cc3ccc(C(N)=O)cc3)C(=O)N[C@@H](Cc3c[nH]c4ccccc34)C(=O)N[C@@H](CCC(N)=O)C(N)=O)(C2)NC(=O)[C@H](C(C)C)NC(=O)[C@H](Cc2ccccc2)NC(=O)[C@H](C)NC(=O)[C@H](C)NC(=O)[C@H](CC(=O)O)NC(=O)[C@H](CC(=O)O)NC1=O [I-89, Ac-Phe-Asp-Ala-R8-Asp-Asp-Ala-Ala-Phe-Val-PyrS-4CBMF-Trp-Gln-NH2] | 0.967 | 5.64 |  |
| CC(=O)N[C@@H](Cc1ccccc1)C(=O)N[C@@H](CC(=O)O)C(=O)N[C@@H](C)C(=O)N[C@]1(C)CCCCCCC=CCOC(=O)N2CC[C@@](C(=O)N[C@@H](Cc3ccccc3)C(=O)N[C@@H](Cc3c[nH]c4ccccc34)C(=O)N[C@@H](CCC(N)=O)C(N)=O)(C2)NC(=O)[C@H](C(C)C)NC(=O)[C@H](Cc2ccccc2)NC(=O)[C@H](C)NC(=O)[C@H](C)NC(=O)[C@H](CCc2ccccc2)NC(=O)[C@H](CC(=O)O)NC1=O [I-97, Ac-Phe-Asp-Ala-R8-Asp-hPhe-Ala-Ala-Phe-Val-PyrS-Phe-Trp-Gln-NH2] | 2.062 | 7.01 |  |

The next molecules have a lower EC50 [2] than those just listed; values first:

| CHI Log D [1] | EC50 [2] [µM] | chromatographic logD [1] | Compound |
| --- | --- | --- | --- |
| 1.268 | 4.94 |  | COc1cccc(C[C@@H]2NC(=O)[C@H](C)NC(=O)[C@H](C)NC(=O)[C@H](CC(=O)O)NC(=O)[C@H](CC(=O)O)NC(=O)[C@](C)(NC(=O)[C@H](C)NC(=O)[C@H](CC(=O)O)NC(=O)[C@H](Cc3ccccc3)NC(C)=O)CCCCCCC=CCOC(=O)N3CC[C@@](C(=O)N[C@@H](Cc4ccccc4)C(=O)N[C@@H](Cc4c[nH]c5ccccc45)C(=O)N[C@@H](CCC(N)=O)C(N)=O)(C3)NC(=O)[C@H](C(C)C)NC2=O)c1 [I-103, Ac-Phe-Asp-Ala-R8-Asp-Asp-Ala-Ala-3OMeF-Val-PyrS-Phe-Trp-Gln-NH2] |
| 1.13 | 4.72 |  | CC(=O)N[C@@H](Cc1ccccc1)C(=O)N[C@@H](CC(=O)O)C(=O)N[C@@H](C)C(=O)N[C@]1(C)CCCCCCC=CCOC(=O)N2CC[C@@](C(=O)N[C@@H](Cc3ccccc3)C(=O)N[C@@H](Cc3c[nH]c4ccccc34)C(=O)N[C@@H](CCC(N)=O)C(N)=O)(C2)NC(=O)[C@H](C(C)C)NC(=O)[C@H](Cc2ccc(C(N)=O)cc2)NC(=O)[C@H](C)NC(=O)[C@H](C)NC(=O)[C@H](CC(=O)O)NC(=O)[C@H](CC(=O)O)NC1=O [I-91, Ac-Phe-Asp-Ala-R8-Asp-Asp-Ala-Ala-4CBMF-Val-PyrS-Phe-Trp-Gln-NH2] |
|  | 3.97 | 1.27 | CC(=O)N[C@@H](Cc1ccccc1)C(=O)N[C@@H](CC(=O)O)C(=O)N[C@@H](C)C(=O)N[C@]1(C)CCCCCCC=CCOC(=O)N2CC[C@@](C(=O)N[C@@H](Cc3ccccc3)C(=O)N[C@@H](Cc3c[nH]c4ccccc34)C(=O)N[C@@H](CCC(N)=O)C(N)=O)(C2)NC(=O)[C@H](C(C)C)NC(=O)[C@H](Cc2ccc(F)c(F)c2)NC(=O)[C@H](C)NC(=O)[C@H](C)NC(=O)[C@H](CC(=O)O)NC(=O)[C@H](CC(=O)O)NC1=O [I-79, Ac-Phe-Asp-Ala-R8-Asp-Asp-Ala-Ala-34FF-Val-PyrS-Phe-Trp-Gln-NH2] |
| 1.274 | 2.08 |  | CC[C@H](C)[C@H](NC(=O)[C@H](CC(=O)O)NC(=O)[C@H](C)NC(C)=O)C(=O)N[C@]1(C)CCN(C)C(=O)OCC=CCCCCC[C@@](C)(C(=O)N[C@@H](Cc2ccccc2)C(=O)N[C@@H](Cc2c[nH]c3ccccc23)C(=O)N[C@@H](Cc2c[nH]cn2)C(N)=O)NC(=O)[C@H](CCC(N)=O)NC(=O)[C@H](Cc2ccccc2)NC(=O)[C@H](C)NC(=O)[C@H](C)NC(=O)[C@H](CC(=O)O)NC(=O)[C@H](CC(=O)O)NC1=O [I-65, Ac-Ala-Asp-Ile-RdN-Asp-Asp-Ala-Ala-Phe-Gln-S7-Phe-Trp-His-NH2] |
| 1.307 | 1.14 |  | CC(=O)N1CCC[C@]12CC=CCCCC1(CCCC=CCOC(=O)N(C)CCC[C@@](C)(C(=O)N[C@@H](Cc3ccccc3)C(=O)N[C@@H](Cc3c[nH]c4ccccc34)C(=O)N[C@@H](CCC(N)=O)C(N)=O)NC(=O)[C@H](C(C)C)NC(=O)[C@H](Cc3ccccc3)NC(=O)[C@H](C)NC(=O)[C@H](C)NC(=O)[C@H](CC(=O)O)NC(=O)[C@H](CC(=O)O)NC1=O)NC(=O)[C@H](C)NC(=O)[C@H](CC(=O)O)NC2=O (stereo partly drawn) [I-53, Ac-PL3-Asp-Ala-B5-Asp-Asp-Ala-Ala-Phe-Val-SeN-Phe-Trp-Gln-NH2] |
